Reference: US9650339B2, “Inhibitors of histone demethylases” (Gilead Sciences, Inc., priority 2013, dated 2017)
pEC50, pIC50: −log10 of the molar value.

How the values were obtained:
KDM4C (JMJD2C) = target: T1, KDM4C (JMJD2C) (Homo sapiens, UniProt Q9H3R0); assay: Histone lysine demethylase AlphaLISA assay, KDM4C; assay type: biochemical; conditions: read-out: KDM4C HDME Inhibition IC50
T1 sequence (Q9H3R0 1-349): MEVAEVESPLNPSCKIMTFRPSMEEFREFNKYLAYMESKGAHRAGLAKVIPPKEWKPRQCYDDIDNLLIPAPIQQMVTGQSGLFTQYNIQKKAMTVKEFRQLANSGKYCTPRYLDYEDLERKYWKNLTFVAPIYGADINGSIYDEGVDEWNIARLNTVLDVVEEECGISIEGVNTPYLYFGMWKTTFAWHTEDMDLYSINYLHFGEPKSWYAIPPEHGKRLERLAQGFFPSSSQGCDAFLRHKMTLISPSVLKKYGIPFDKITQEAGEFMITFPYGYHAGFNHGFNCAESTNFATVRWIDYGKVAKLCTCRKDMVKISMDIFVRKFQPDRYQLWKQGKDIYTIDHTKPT
Summary of the method: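 AlphaLISA demethylation readout: enzyme preincubated 10 min, then 10 min with compounds in 3% DMSO buffer, before biotinylated methyl-lysine histone peptide substrate with 25 μM L-Asc and 10 μM α-KG, room temperature. Acceptor beads then streptavidin donor beads added, dark incubation, plates read.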

KDM3A (JMJD1A) = target: T2, KDM3A (JMJD1A) (Homo sapiens, UniProt Q9Y4C1); assay: Histone lysine demethylase AlphaLISA assay, KDM3A; assay type: biochemical; conditions: read-out: KDM3 A HDME Inhibition IC50
T2 construct: 2-end; purchased BPS Bioscience, US; host or cells: Bac (baculovirus system)
T2 sequence (Q9Y4C1 2-1321 limits assumed): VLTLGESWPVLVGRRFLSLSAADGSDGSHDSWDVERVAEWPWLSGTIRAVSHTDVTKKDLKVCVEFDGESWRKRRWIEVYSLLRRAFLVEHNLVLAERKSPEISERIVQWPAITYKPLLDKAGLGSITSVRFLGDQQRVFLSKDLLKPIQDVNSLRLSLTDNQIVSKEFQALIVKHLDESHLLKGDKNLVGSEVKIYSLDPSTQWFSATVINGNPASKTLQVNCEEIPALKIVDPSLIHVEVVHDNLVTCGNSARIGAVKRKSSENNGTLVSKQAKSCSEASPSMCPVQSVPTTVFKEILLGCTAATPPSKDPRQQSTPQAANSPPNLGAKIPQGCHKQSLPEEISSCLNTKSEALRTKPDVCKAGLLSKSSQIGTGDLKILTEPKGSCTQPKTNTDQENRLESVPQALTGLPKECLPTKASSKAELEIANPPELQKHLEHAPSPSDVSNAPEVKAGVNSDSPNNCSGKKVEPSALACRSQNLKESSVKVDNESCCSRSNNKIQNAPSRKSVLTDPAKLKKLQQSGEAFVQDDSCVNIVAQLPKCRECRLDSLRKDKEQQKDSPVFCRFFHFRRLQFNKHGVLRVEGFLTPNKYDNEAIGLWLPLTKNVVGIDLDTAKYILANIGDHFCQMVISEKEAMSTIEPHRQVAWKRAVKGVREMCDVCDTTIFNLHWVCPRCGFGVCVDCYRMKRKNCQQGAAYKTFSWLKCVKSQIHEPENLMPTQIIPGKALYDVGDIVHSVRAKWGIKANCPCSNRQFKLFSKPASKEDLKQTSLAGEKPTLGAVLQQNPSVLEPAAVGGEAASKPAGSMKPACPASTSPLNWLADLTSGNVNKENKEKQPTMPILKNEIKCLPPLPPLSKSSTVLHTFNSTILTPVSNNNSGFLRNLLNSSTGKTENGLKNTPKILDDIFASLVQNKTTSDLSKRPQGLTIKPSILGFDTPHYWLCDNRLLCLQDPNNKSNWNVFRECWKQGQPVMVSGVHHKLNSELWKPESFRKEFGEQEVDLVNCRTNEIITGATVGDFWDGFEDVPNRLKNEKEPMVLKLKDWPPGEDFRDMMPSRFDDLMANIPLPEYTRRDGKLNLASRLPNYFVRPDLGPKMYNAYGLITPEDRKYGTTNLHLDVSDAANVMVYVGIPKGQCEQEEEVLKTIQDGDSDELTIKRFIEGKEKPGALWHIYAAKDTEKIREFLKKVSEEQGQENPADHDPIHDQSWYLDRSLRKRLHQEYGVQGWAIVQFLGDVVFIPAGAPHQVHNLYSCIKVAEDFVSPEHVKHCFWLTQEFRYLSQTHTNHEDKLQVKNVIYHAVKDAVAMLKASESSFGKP
Experimental: Assays are performed analogously to the protocol described by PerkinElmer (Roy et al. PerkinElmer Technical Note: AlphaLISA #12, April 2011)
Enzymes are dissolved in enzyme buffer and incubated for 10 min before being added to 3% DMSO solutions of compounds in enzyme buffer. Incubated for another 10 minutes, before substrate solution is added and the reaction mixture is incubated at room temperature. 10 μL acceptor beads, suspended in Epigenetic Buffer (Perkin Elmer AL008) from stock, are added and the suspension is incubated in the dark at room temperature, before a suspension of streptavidin donor beads (Perkin Elmer 6760002) in Epigenetic Buffer is added. After incubation at room temperature in the dark the plates are read. […]
BK9M2: Biotin-ARTKQTAR(KMe2)STGGKAPRKQ-NH2 (AnaSpec 64359) […]
Substrate Solution: Substrate, 25 μM L-Asc, and 10 μM α-KG in Buffer A.

MCF7 cells = assay: Cell proliferation assay MCF7; assay type: cell-based; conditions: MCF7 human breast cancer cells; 120 hours; ATPlite 1 Step
Summary of the method: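 Cells grown 24 h in DMEM GlutaMAX/10% FBS, then exposed to compounds in duplicate (≤0.5% DMSO) for 120 h. Viability read as ATP luminescence (ATPlite 1 Step). Seeding set to reach ~90% confluence at harvest.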

pIC50 (KDM4C (JMJD2C))	pIC50 (KDM3A (JMJD1A))	pEC50 (MCF7 cells)	Compound
< 5.60	< 5.60	> 6.60	CC(C#N)NCc1ccnc(CNCCCN(C)C)c1 (stereo not drawn) [Compound 22, 2-({[2-({[3-(dimethylamino)propyl]-amino}methyl)pyridin-4-yl]methyl}amino)-propanenitrile]
< 5.60	< 5.60	> 6.60	CCN(CCN(C)C)C(=O)CNCc1cc(CNC(=O)C(F)(F)F)ccn1 [Compound 25, N-[(2-{[({[2-(dimethylamino)ethyl]-(ethyl)carbamoyl}-methyl)amino]methyl}-pyrtdin-4-yl)methyl]-2,2,2-trifluoroacetamide]
5.60 to 6.60	< 5.60	5.60 to 6.60	CN(C)C(=O)CNCc1cc(/C=N/CCC2CCCCC2)ccn1 [Compound 36, 2-[({4-[[(2-cyclohexylethyl)imino]-methyl]pyridin-2-yl}methyl)amino]-N,N-dimethylacetamide]
< 5.60	< 5.60	> 6.60	CN(C)CCC/N=C/c1ccnc(CNCCCN(C)C)c1 [Compound 37, [3-(dimethylamino)propyl]-({4-[{[3-(dimethylamino)propyl]-imino}methyl]pyridin-2-yl}methyl)amine]
< 5.60	< 5.60	5.60 to 6.60	CN1CCCC1CCNCc1cc(/C=N/C2CC2)ccn1 (stereo not drawn) [Compound 40, N-{[2-({[2-(l-methylpyrrolidin-2-yl)ethyl]amino}methyl)-pyridin-4-yl]methylidene}-cyclopropanamine]
< 5.60	< 5.60	> 6.60	C(=N/C1CC1)/c1ccnc(CNCCCN2CCCC2)c1 [Compound 42, N-{[2-({[3-(pyrrolidin-1-yl)propyl]amino}-methyl)pyridin-4-yl]methylidene}-cyclopropanamine]
> 6.60	< 5.60	> 6.60	CN(C)C/C=C/CNCc1cc(/C=N/C2CC2)ccn1 [Compound 43, N-{[2-({[(2E)-4-(dimethylamino)but-2-en-1-yl]amino}-methyl)pyridin-4-yl]methylidene}-cyclopropanamine]
> 6.60	< 5.60	> 6.60	C(=N\C1CC1)/c1ccnc(CNCCCCN2CCC2)c1 [Compound 44, N-{[2-({[4-(azetidin-1-yl)butyl]amino}methyl)-pyridin-4-yl]methylidene}-cyclopropanamine]
5.60 to 6.60	< 5.60	< 5.60	CCN(CC)C(=O)CNCc1cc(/C=N/CCC2CCCCC2)ccn1 [Compound 57, 2-[({4-[[(2-cyclohexylethyl)imino]-methyl]pyridin-2-yl}methyl)amino]-N,N-diethylacetamide]
5.60 to 6.60	< 5.60	< 5.60	CCCCCCCC/N=C/c1ccnc(CNCC(=O)N(CC)CC)c1 [Compound 58, N,N-diethyl-2-[({4-[(octylimino)methyl]-pyridin-2-yl}methyl)amino]-acetamide]
5.60 to 6.60	< 5.60	> 6.60	CCN(CC)CCCCNCc1cc(/C=N/CCO)ccn1 [Compound 61, 2-[{[2-({[4-(diethylamino)-butyl]amino}-methyl)pyridin-4-yl]methylidene}-amino]ethan-1-ol]
> 6.60	< 5.60	> 6.60	CCN(CCN(C)C)C(=O)CNCc1cc(/C=N/CCO)ccn1 [Compound 66]
< 5.60	< 5.60	5.60 to 6.60	CN(C)CC1CCC(CNCc2cc(C=O)ccn2)CC1 (stereo not drawn) [Compound 97, 2-{[({4-[(dimethylamino)-methyl]cyclohexyl}-methyl)amino]-methyl}pyridine-4-carbaldehyde]

Continued, compound first:

Compound	pIC50 (KDM4C (JMJD2C))	pIC50 (KDM3A (JMJD1A))	pEC50 (MCF7 cells)
CN(C)CCCCCNCc1cc(CN)ccn1 [Compound 8, [2-({[5-(dimethylamino)pentyl]-amino}methyl)pyridin-4-yl]methanamine]	< 5.60	< 5.60	> 6.60
COc1ccccc1CN1CCC(NC(=O)CNCc2cc(CN)ccn2)CC1 [Compound 9, 2-({[4-(aminomethyl)pyridin-2-yl]methyl}amino)-N-{1-[(2-methoxyphenyl)methyl]-piperidin-4-yl}acetamide]	< 5.60	< 5.60	< 5.60
CN(C)C(=O)CNCc1cc(/C=N/CCCc2ccccc2)ccn1 [Compound 34, N,N-dimethyl-2-[({4-[[(3-phenylpropyl)imino]-methyl]pyridin-2-yl}methyl)amino]-acetamide]	5.60 to 6.60	< 5.60	< 5.60
CN(C)CCCNCc1cc(/C=N/CCN(C)C)ccn1 [Compound 38, ({4-[{[2-(dimethylamino)ethyl]-imino}methyl]pyridin-2-yl}methyl)[3-(dimethylamino)-propyl]amine]	5.60 to 6.60	< 5.60	> 6.60
CN(C)CC1CCC(CNCc2cc(/C=N/C3CC3)ccn2)CC1 (stereo not drawn) [Compound 46, N-[(2-{[({4-[(dimethylamino)-methyl]cyclohexyl}-methyl)amino]-methyl}pyridin-4-yl)methylidene]-cyclopropanamine]	< 5.60	< 5.60	> 6.60
CCN(CC)CCCCNCc1cc(/C=N/CCOC)ccn1 [Compound 60, [4-(diethylamino)butyl]-({4-[[(2-methoxyethyl)imino]-methyl]pyridin-2-yl}methyl)amine]	< 5.60	< 5.60	> 6.60
CCN(CC)CCCCNCc1cc(/C=N/CC(F)(F)C(F)(F)F)ccn1 [Compound 62, {[2-({[4-(diethylamino)-butyl]amino}methyl)pyridin-4-yl]methylidene} (2,2,3,3,3-pentafluoropropyl)-amine]	< 5.60	< 5.60	> 6.60
CON=Cc1ccnc(CNCCCN(C)C)c1 [Compound 64, [3-(dimethylamino)-propyl]({4-[(methoxyimino)-methyl]pyridin-2-yl}methyl)amine]	< 5.60	< 5.60	< 5.60
CCN(CC)CCCCNCc1cc(C2NCCN2C)ccn1 (stereo not drawn) [Compound 65, [4-(diethylamino)-butyl]({[4-(1-methylimidazolidin-2-yl)pyridin-2-yl]methyl})amine]	5.60 to 6.60	< 5.60	> 6.60
CCN(CC)CCCCNCc1cc(/C=N\CCC2CCCCC2)ccn1 [Compound 67, (2-cyclohexylethyl)-({[2-({[4-(diethylamino)-butyl]amino}methyl)pyridin-4-yl]methylidene})-amine]	5.60 to 6.60	< 5.60	> 6.60
